How the values were obtained:
Type in all cases: in vivo, C57BL/6J mice
[1] = test system: SOD2; experiment: Liver mRNA expression of SOD2 in aged mice (TaqMan low density array); conditions: 0.8 weight-% N-acetylneuraminic acid in diet for 42 days, vs non-supplemented AlN-93, n=8
Description: (§1) Specific pathogen-free male C57BL/6J mice (4-weeks old) were purchased from Janvier (France). Mice were housed under conventional circumstances (12 hours light/dark cycle, temperature 22° C., humidity 56%) and received water and semi-synthetic Kliba 3436 diet ad libitum. Until the age of 5 months, mice were maintained at 5 per cage and then they were individually caged. All conditions and handling of the animals were approved by the Nestle and state ethical committees with the agreement of the Swiss Federal Veterinary Advisor. […]
(§2) Mice were killed on day 42 of trial. The expression of genes involved in inflammatory processes was determined in the liver of aged mice that were supplemented or not with SiAc for 42 days. […]
(§3) Liver samples were transferred into 1 ml of RNA lysis buffer (Macherey-Nagel, Düren, Germany) and homogenized using Ribolyzer (Hybaid, Waltham, Mass., USA) with the following setting: power at 6 for 20 seconds. […] RNA quantification was achieved using the Ribogreen RNA Quantitation Kit (Molecular Probes; Eugene, Oreg. USA), and RNA quality was assayed using Agilent RNA 6000 Nano LabChip Kit (Agilent Technologies, Palo Alto, USA). […]

[2] = test system: HO-1; experiment: Liver mRNA expression of HO-1 in aged mice (TaqMan low density array); conditions: 0.8 weight-% N-acetylneuraminic acid in diet for 42 days, vs non-supplemented AlN-93, n=8
Description: as §1, §2, §3

[3] = test system: TGF-β2; experiment: Liver mRNA expression of TGF-β2 in aged mice (TaqMan low density array); conditions: 0.8 weight-% N-acetylneuraminic acid in diet for 42 days, vs non-supplemented AlN-93, n=8
Description: as §1, §2, §3

[4] = test system: aged mice; experiment: Delayed-type hypersensitivity (DTH) response, ear swelling after KLH elicitation, in aged mice; conditions: aged mice (19-months old), 0.8 weight-% N-acetylneuraminic acid in AlN-93 diet, vs non-supplemented AlN-93, n=10
Description: Specific pathogen-free male C57BL/6J mice (4-weeks old) were purchased from Janvier (France). Mice were housed under conventional circumstances (12 hours light/dark cycle, temperature 22° C., humidity 56%) and received water and semi-synthetic Kliba 3436 diet ad libitum. Until the age of 5 months, mice were maintained at 5 per cage and then they were individually caged. All conditions and handling of the animals were approved by the Nestle and state ethical committees with the agreement of the Swiss Federal Veterinary Advisor. 19-months old mice were randomized into 2 groups of 10 animals and were fed with a semi-synthetic AlN-93 diet either non-supplemented (group control AlN-93, n=10) or supplemented with SiAc (0.8 weight-% N-acetylneuraminic acid in the diet) (group SiAc, n=10). During the 42 days of trial, all mice were allowed to drink and eat ad libitum.
The DTH response was used as an in vivo measure of cellular immunity. […] At 24 hours post-elicitation, and during the following 5 days, both the non-elicited (left ear) and the elicited ears (right ear) were measured. DTH responses (KLH-PBS) were expressed as the magnitude of ear swelling, i.e. the change in ear thickness using the following formula: Δ in ear thickness=[elicited ear (right, KLH) ear sickness−non-elicited (left, PBS) ear sickness], where Δ in ear thickness=[post-elicitation−pre-elicitation ear thickness].

With `CC(=O)N[C@H]1[C@H]([C@H](O)[C@H](O)CO)OC(O)(C(=O)O)C[C@@H]1O` (stereo partly shown) [SiAc, N-acetylneuraminic acid] the “expression of gene encoding SOD2, defence against oxidative damage (FIG. 2)” value [1] was “increased expression”, the “expression of gene encoding HO-1, defence against oxidative damage (FIG. 2)” value [2] was “increased expression” and the “expression of gene encoding anti-inflammatory molecule TGF-β2 (FIG. 2)” value [3] was “increased expression”. For the same molecule, the “cell-mediated immune response (DTH response, FIG. 1)” value [4] was “improved”.

Source: US9084805B2, “Sialic acid to support the immune system in the elderly” (Nestec S.A., priority 2008, dated 2015)
